From PubChem BioAssay (NCI)
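Each compound was tested at five concentrations against cells in 96-well plates for 48 hours. GI50: concentration for 50% inhibition of growth. TGI: total growth inhibition.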

What was measured:
Test in all cases: NCI tumour cell line growth inhibition, 48 h
LOX IMVI melanoma = system: LOX IMVI melanoma
SF-295 CNS = system: SF-295 CNS
HS 578T breast = system: HS 578T breast
SK-MEL-2 melanoma = system: SK-MEL-2 melanoma
M14 melanoma = system: M14 melanoma
NCI-H522 lung = system: NCI-H522 lung
K-562 leukemia = system: K-562 leukemia
BT-549 breast = system: BT-549 breast
ACHN renal = system: ACHN renal
EKVX NSCLC = system: EKVX NSCLC

SMILES | GI50 (LOX IMVI melanoma) | TGI (LOX IMVI melanoma) | GI50 (SF-295 CNS) | TGI (SF-295 CNS) | GI50 (HS 578T breast) | TGI (HS 578T breast) | GI50 (SK-MEL-2 melanoma) | TGI (SK-MEL-2 melanoma) | GI50 (M14 melanoma) | TGI (M14 melanoma) | GI50 (NCI-H522 lung) | TGI (NCI-H522 lung) | GI50 (K-562 leukemia) | TGI (K-562 leukemia) | GI50 (BT-549 breast) | TGI (BT-549 breast) | GI50 (ACHN renal) | TGI (ACHN renal) | GI50 (EKVX NSCLC) | TGI (EKVX NSCLC)
CSc1ccc(-c2cc(-c3ccc(NC(=O)CCCN4CCCC4)cc3)nc(-c3ccc(NC(=O)CCCN4CCCC4)cc3)c2)cc1 | 2.01 µM | 4.18 µM | 3.29 µM | 15.4 µM | 2.28 µM | 6.38 µM | 4.58 µM | 19.2 µM | 4.23 µM | 17.4 µM | 1.91 µM | 3.59 µM | 1.64 µM | 3.31 µM | 2.21 µM | 5.49 µM | 3.65 µM | 13.9 µM |  | 
O=C(Nc1ccc(Cl)cc1)c1cc2c(cc1O)[nH]c1ccccc12 | 3.48 µM | 13.1 µM | 1.67 µM | 3.87 µM | 3.08 µM | 14.5 µM | 2.47 µM | 6.98 µM | 2.85 µM | 10.4 µM | 2.88 µM | 10.6 µM | 4.28 µM | > 100 µM | 2.29 µM | 6.1 µM | 3.11 µM | 11.1 µM | 2.16 µM | 7.89 µM
CCCCCCCCCCCCCCCC(=O)OCC1OC(n2cnc3c(=S)nc(N)[nH]c32)C(OC(=O)CCCCCCCCCCCCCCC)C1OC(=O)CCCCCCCCCCCCCCC (configuration not stated) | 1.54 µM | > 50 µM | 1.63 µM | 24.4 µM | 13 µM | > 50 µM | 4.39 µM | 28.4 µM | 1.5 µM | > 17.9 µM | 4.82 µM | > 47.4 µM | 2.05 µM | > 50 µM | > 50 µM | > 50 µM | 11.8 µM | > 50 µM | 6.15 µM | > 50 µM
Cn1c(=O)c(Oc2cccc(F)c2)cc2cnc(NC3CCOCC3)nc21 | > 25 µM | > 25 µM | > 25 µM | > 25 µM | > 25 µM | > 25 µM | > 25 µM | > 25 µM | > 25 µM | > 25 µM | > 25 µM | > 25 µM | > 25 µM | > 25 µM | > 25 µM | > 25 µM | > 25 µM | > 25 µM |  | 
CC1=C(C(=O)Nc2ccc3[nH]ncc3c2)C(c2ccc(F)cc2)NC(=O)N1 (configuration not stated) | > 25 µM | > 25 µM | > 25 µM | > 25 µM | 7.41 µM | > 25 µM | > 25 µM | > 25 µM | > 25 µM | > 25 µM | > 18.2 µM | > 25 µM | > 25 µM | > 25 µM | 16.9 µM | > 25 µM | > 25 µM | > 25 µM | > 25 µM | > 25 µM
COc1cc(C(=O)/C=C/c2c(-c3ccc(F)cc3)nc3sc(C)cn23)cc(OC)c1OC | 2.5 µM | > 100 µM | 2.33 µM | 26.7 µM | 8.29 µM | > 100 µM | 5.75 µM | > 100 µM | 5.12 µM | > 100 µM | 2.96 µM | > 100 µM | 5.46 µM | > 100 µM | 3.75 µM | > 100 µM | 5.83 µM | > 100 µM | 2.29 µM | > 100 µM
Cc1ccccc1S(=O)(=O)N1[C@H](c2ccc(Cl)cc2)C(C(=O)N[C@@H](Cc2ccccc2)C(N)=O)=C[C@@H]1C(C)(C)C | 6.98 µM | 14 µM | 2.8 µM | 10 µM | 8.64 µM | 26.4 µM | 9.59 µM | 17.6 µM | 6.44 µM | 17 µM | 7.92 µM | 15.6 µM | 7.1 µM | 35.4 µM | 8.63 µM | 20.9 µM | 2.95 µM | 9.83 µM |  | 
N#Cc1cccc(C(=O)c2cnn(-c3ccc(F)cc3)c2N)c1 | > 25 µM | > 25 µM | > 20.1 µM | > 25 µM | > 25 µM | > 25 µM | 24.4 µM | > 25 µM | > 25 µM | > 25 µM | > 25 µM | > 25 µM | > 25 µM | > 25 µM | > 25 µM | > 25 µM | > 25 µM | > 25 µM |  | 
CCOC(=O)c1cc2c(n1Cc1cc(OC)cc(OC)c1)-c1oncc1CCC2 | 0.119 µM | > 100 µM | 0.0291 µM | 0.14 µM | 0.0492 µM | > 100 µM | 0.038 µM | > 100 µM | 0.057 µM | > 100 µM | 0.0194 µM | 0.0682 µM | 0.0575 µM | > 100 µM | 0.89 µM | > 100 µM | 0.0674 µM | > 100 µM |  | 
COc1ccc(Nc2ccnc(NCCNc3ccnc4cc(Cl)ccc34)n2)cc1 | 1.44 µM | 2.96 µM | 1.03 µM | 2.78 µM | 2 µM | 5.91 µM | 2.25 µM | 4.11 µM | 1.46 µM | 3.41 µM | 2.38 µM | 7.8 µM | 1.32 µM | 4.75 µM | 1.86 µM | 7.01 µM | 2.27 µM | 6.06 µM |  | 
O=C1c2ccccc2-c2nccc3cc(Cl)nc1c23 | 1.13 µM | 2.33 µM | 4.61 µM | > 88.9 µM | 1.99 µM | 14.2 µM | 2.83 µM | 7.28 µM |  |  | 0.458 µM | 1.61 µM | 0.665 µM | 5.24 µM | 7.11 µM | > 100 µM |  |  | 48.9 µM | > 100 µM
Cc1ccc2c[c]1[Hg][CH2]COS2(=O)=O | 18.5 µM | 36.4 µM |  |  | 23.7 µM | 58.1 µM | 21.4 µM | 38.4 µM | 17.4 µM | 31.2 µM | 22.6 µM | 42.8 µM | 16.4 µM | 41.2 µM | 17.8 µM | 31.6 µM | 16.2 µM | 29.7 µM | 21.5 µM | 38.5 µM
